Experimental data published in patent publication US20250197601A1, “COMPOSITION” (LMS CO., LTD., priority 2023, published 2025).

Test: Solubility of each synthesized compound in multiple solvents at room temperature
Type: physicochemical
Conditions: room temperature (about 25° C.); for Solubility in MEK: methyl ethyl ketone; for Solubility in MIBK: methyl isobutyl ketone
Description: The solubility of each compound synthesized above was evaluated. Solubility was evaluated based on the following criteria by evaluating the solubility of each compound in multiple solvents (cyclohexanone, toluene, methyl isobutyl ketone (MIBK), or methyl ethyl ketone (MEK)) at room temperature (about 25° C.).
• A: A case where the solubility is 1% by mass or more. • B: A case where the solubility is 0.5 mass % or more and less than 1 mass %. • C: A case where the solubility is 0.2 mass % or more and less than 0.5 mass %. • D: A case where solubility is less than 0.2 mass %.

CCOC(=O)Nc1cc2c(cc1C1=C([O-])/C(=c3\cc4c(cc3NC(=O)OCC)=[N+](CCOC)C(C)C4(C)C)C1=O)C(C)(C)C(C)N2CCOC (centres unmarked) [Synthesis Example 1]
Solubility in Cyclohexanone: A (A case where the solubility is 1% by mass or more.) | Solubility in MEK: A (A case where the solubility is 1% by mass or more.) | Solubility in MIBK: A (A case where the solubility is 1% by mass or more.) | Solubility in Toluene: B (A case where the solubility is 0.5 mass % or more and less than 1 mass %.)

CCCCC(CC)COC(=O)Nc1cc2c(cc1C1=C([O-])/C(=c3\cc4c(cc3NC(=O)OCC(CC)CCCC)=[N+](CCOC)C(C)C4(C)C)C1=O)C(C)(C)C(C)N2CCOC (centres unmarked) [Synthesis Example 2]
Solubility in Cyclohexanone: A (A case where the solubility is 1% by mass or more.) | Solubility in MEK: A (A case where the solubility is 1% by mass or more.) | Solubility in MIBK: A (A case where the solubility is 1% by mass or more.) | Solubility in Toluene: B (A case where the solubility is 0.5 mass % or more and less than 1 mass %.)

CCCCC(CC)COC(=O)Nc1cc2c(cc1C1=C([O-])/C(=c3\cc4c(cc3NC(=O)OCC(CC)CCCC)=[N+](C)C(C)C4(C)C)C1=O)C(C)(C)C(C)N2C (centres unmarked) [Synthesis Example 3]
Solubility in Cyclohexanone: A (A case where the solubility is 1% by mass or more.) | Solubility in MEK: A (A case where the solubility is 1% by mass or more.) | Solubility in MIBK: A (A case where the solubility is 1% by mass or more.) | Solubility in Toluene: A (A case where the solubility is 1% by mass or more.)

CCCCCCN1c2cc(NC(C)=O)c(C3=C([O-])/C(=c4\cc5c(cc4NC(C)=O)=[N+](CCCCCC)C(C)C5(C)C)C3=O)cc2C(C)(C)C1C (centres unmarked) [Synthesis Example 4]
Solubility in Cyclohexanone: A (A case where the solubility is 1% by mass or more.) | Solubility in MEK: A (A case where the solubility is 1% by mass or more.) | Solubility in MIBK: A (A case where the solubility is 1% by mass or more.) | Solubility in Toluene: B (A case where the solubility is 0.5 mass % or more and less than 1 mass %.)

CCCCCCN1c2cc(NC(=O)C(CC)CCCC)c(C3=C([O-])/C(=c4\cc5c(cc4NC(=O)C(CC)CCCC)=[N+](CCCCCC)C(C)C5(C)C)C3=O)cc2C(C)(C)C1C (centres unmarked) [Synthesis Example 5]
Solubility in Cyclohexanone: A (A case where the solubility is 1% by mass or more.) | Solubility in MEK: A (A case where the solubility is 1% by mass or more.) | Solubility in MIBK: A (A case where the solubility is 1% by mass or more.) | Solubility in Toluene: A (A case where the solubility is 1% by mass or more.)

CCCCCCCCS(=O)(=O)Nc1cc2c(cc1C1=C([O-])/C(=c3\cc4c(cc3NS(=O)(=O)CCCCCCCC)=[N+](CCCCCC)C(C)C4(C)C)C1=O)C(C)(C)C(C)N2CCCCCC (centres unmarked) [Synthesis Example 6]
Solubility in Cyclohexanone: A (A case where the solubility is 1% by mass or more.) | Solubility in MEK: A (A case where the solubility is 1% by mass or more.) | Solubility in MIBK: A (A case where the solubility is 1% by mass or more.) | Solubility in Toluene: A (A case where the solubility is 1% by mass or more.)

CC(=O)Nc1cc2c(cc1C1=C([O-])/C(=c3\cc4c(cc3NC(C)=O)=[N+](C)C(C)C4(C)C)C1=O)C(C)(C)C(C)N2C (centres unmarked) [Synthesis Example 7]
Solubility in Cyclohexanone: A (A case where the solubility is 1% by mass or more.) | Solubility in MEK: B (A case where the solubility is 0.5 mass % or more and less than 1 mass %.) | Solubility in MIBK: A (A case where the solubility is 1% by mass or more.) | Solubility in Toluene: B (A case where the solubility is 0.5 mass % or more and less than 1 mass %.)

C/C(C1=Nc2ccc3ccccc3c2C1(C)C)=C1/C(=O)C(C(/C)=C2/Nc3ccc4ccccc4c3C2(C)C)=C1O [Synthesis Example 12]
Solubility in Cyclohexanone: B (A case where the solubility is 0.5 mass % or more and less than 1 mass %.) | Solubility in MEK: C (A case where the solubility is 0.2 mass % or more and less than 0.5 mass %.) | Solubility in MIBK: B (A case where the solubility is 0.5 mass % or more and less than 1 mass %.) | Solubility in Toluene: C (A case where the solubility is 0.2 mass % or more and less than 0.5 mass %.)

CC(C)(C)C1=C\C(=C/C=C/C=C/c2cc(C(C)(C)C)[o+]c3ccccc23)c2ccccc2O1 [Synthesis Example 13]
Solubility in Cyclohexanone: A (A case where the solubility is 1% by mass or more.) | Solubility in MEK: A (A case where the solubility is 1% by mass or more.) | Solubility in MIBK: A (A case where the solubility is 1% by mass or more.) | Solubility in Toluene: B (A case where the solubility is 0.5 mass % or more and less than 1 mass %.)

Cc1ccc2c(c1)/C(=C/C=C/C=C/c1cc(C(C)(C)C)[o+]c3ccc(C)cc13)C=C(C(C)(C)C)O2 [Synthesis Example 14]
Solubility in Cyclohexanone: A (A case where the solubility is 1% by mass or more.) | Solubility in MEK: A (A case where the solubility is 1% by mass or more.) | Solubility in MIBK: A (A case where the solubility is 1% by mass or more.) | Solubility in Toluene: A (A case where the solubility is 1% by mass or more.)

CC(C)(C)C1=C\C(=C/C=C(Cl)/C=C/c2cc(C(C)(C)C)[o+]c3ccccc23)c2ccccc2O1 [Synthesis Example 15]
Solubility in Cyclohexanone: A (A case where the solubility is 1% by mass or more.) | Solubility in MEK: A (A case where the solubility is 1% by mass or more.) | Solubility in MIBK: A (A case where the solubility is 1% by mass or more.) | Solubility in Toluene: B (A case where the solubility is 0.5 mass % or more and less than 1 mass %.)

COc1ccc2c(c1)/C(=C/C=C(Cl)/C=C/c1cc(C(C)(C)C)[o+]c3ccc(OC)cc13)C=C(C(C)(C)C)O2 [Synthesis Example 16]
Solubility in Cyclohexanone: A (A case where the solubility is 1% by mass or more.) | Solubility in MEK: A (A case where the solubility is 1% by mass or more.) | Solubility in MIBK: A (A case where the solubility is 1% by mass or more.) | Solubility in Toluene: A (A case where the solubility is 1% by mass or more.)

CC(C)(C)C1=C\C(=C/C=C/C=C/c2cc(-c3ccccc3)[o+]c(C(C)(C)C)c2)C=C(c2ccccc2)O1 [Synthesis Example 17]
Solubility in Cyclohexanone: B (A case where the solubility is 0.5 mass % or more and less than 1 mass %.) | Solubility in MEK: B (A case where the solubility is 0.5 mass % or more and less than 1 mass %.) | Solubility in MIBK: A (A case where the solubility is 1% by mass or more.) | Solubility in Toluene: B (A case where the solubility is 0.5 mass % or more and less than 1 mass %.)

CC(C)(C)C1=C\C(=C/C=C(Cl)/C=C/c2cc(-c3ccc(C(C)(C)C)cc3)[o+]c(C(C)(C)C)c2)C=C(c2ccc(C(C)(C)C)cc2)O1 [Synthesis Example 18]
Solubility in Cyclohexanone: A (A case where the solubility is 1% by mass or more.) | Solubility in MEK: A (A case where the solubility is 1% by mass or more.) | Solubility in MIBK: A (A case where the solubility is 1% by mass or more.) | Solubility in Toluene: B (A case where the solubility is 0.5 mass % or more and less than 1 mass %.)
